Assays:
Mus musculus [1] = experiment: Decrease in ratio of kynurenine to tryptophan in C57BL/6 mouse at 50 mg/kg, po after 5 hrs by LC-MS/MS analysis; format: functional; conditions: C57BL/6, po
[2] = Plasma concentration in C57BL/6 mouse at 50 mg/kg, po after 2 hrs by LC-MS/MS analysis; format: ADME, organism-based
[3] = Plasma concentration in C57BL/6 mouse at 50 mg/kg, po after 5 hrs by LC-MS/MS analysis; format: ADME, organism-based
CT26 [4] = experiment: Antitumor activity against mouse CT26 cells xenografted in Balb/c mouse assessed as median time to end point at 400 mg/kg, po bid for 22 days; format: functional
CT26 [5] = experiment: Antitumor activity against mouse CT26 cells xenografted in Balb/c mouse assessed as median time to end point at 200 mg/kg, po bid for 22 days; format: functional
Mus musculus [6] = experiment: Toxicity in BalB/c mouse xenografted with CT26 cells assessed as change in body weight at 100 to 400 mg/kg, po bid for 22 days; format: organism-based; conditions: in vivo, 528 h
CT26 [7] = experiment: Antitumor activity against mouse CT26 cells xenografted in Balb/c mouse assessed as reduction in tumor weight at 100 mg/kg bid for 18 days administered via oral gavage; format: functional; conditions: 432 h
[8] = molecular target: Prostaglandin E2 receptor EP4 subtype (Homo sapiens) (UniProt P35408); experiment: Inhibition of Prostaglandin E2 receptor EP4 (unknown origin) at 10 uM
Chain of Prostaglandin E2 receptor EP4 subtype (Homo sapiens) (P35408 whole entry): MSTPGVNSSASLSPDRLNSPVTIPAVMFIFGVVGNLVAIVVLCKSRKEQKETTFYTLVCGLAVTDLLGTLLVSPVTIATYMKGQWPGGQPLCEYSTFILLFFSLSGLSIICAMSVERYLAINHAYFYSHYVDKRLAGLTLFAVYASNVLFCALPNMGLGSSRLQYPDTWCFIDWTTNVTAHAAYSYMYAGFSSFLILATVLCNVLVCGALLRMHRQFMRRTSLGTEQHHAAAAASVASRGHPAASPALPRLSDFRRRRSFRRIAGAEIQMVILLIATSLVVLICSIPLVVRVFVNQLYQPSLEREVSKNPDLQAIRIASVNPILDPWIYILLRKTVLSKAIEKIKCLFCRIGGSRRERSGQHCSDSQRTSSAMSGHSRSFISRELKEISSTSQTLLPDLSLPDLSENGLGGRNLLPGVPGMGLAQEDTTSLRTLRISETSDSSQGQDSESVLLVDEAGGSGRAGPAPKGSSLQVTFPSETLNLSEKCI

[9] = molecular target: Mu-type opioid receptor (Homo sapiens) (UniProt P35372); experiment: Inhibition of Opiate mu receptor (unknown origin) at 10 uM
Chain of Mu-type opioid receptor (Homo sapiens) (P35372 whole entry): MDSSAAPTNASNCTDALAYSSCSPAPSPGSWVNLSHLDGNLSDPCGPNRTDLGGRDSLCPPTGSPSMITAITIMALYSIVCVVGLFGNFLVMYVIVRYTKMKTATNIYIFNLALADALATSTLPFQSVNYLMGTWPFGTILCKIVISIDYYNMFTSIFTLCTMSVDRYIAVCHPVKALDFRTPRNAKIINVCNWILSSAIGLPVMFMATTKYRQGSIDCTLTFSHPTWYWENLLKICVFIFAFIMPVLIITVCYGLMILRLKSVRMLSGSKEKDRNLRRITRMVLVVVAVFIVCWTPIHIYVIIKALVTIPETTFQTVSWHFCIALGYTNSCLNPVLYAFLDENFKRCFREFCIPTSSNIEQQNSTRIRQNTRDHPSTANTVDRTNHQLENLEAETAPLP

[10] = molecular target: Kappa-type opioid receptor (Homo sapiens) (UniProt P41145); experiment: Inhibition of Opiate kappa receptor (unknown origin) at 10 uM
Chain of Kappa-type opioid receptor (Homo sapiens) (P41145 whole entry): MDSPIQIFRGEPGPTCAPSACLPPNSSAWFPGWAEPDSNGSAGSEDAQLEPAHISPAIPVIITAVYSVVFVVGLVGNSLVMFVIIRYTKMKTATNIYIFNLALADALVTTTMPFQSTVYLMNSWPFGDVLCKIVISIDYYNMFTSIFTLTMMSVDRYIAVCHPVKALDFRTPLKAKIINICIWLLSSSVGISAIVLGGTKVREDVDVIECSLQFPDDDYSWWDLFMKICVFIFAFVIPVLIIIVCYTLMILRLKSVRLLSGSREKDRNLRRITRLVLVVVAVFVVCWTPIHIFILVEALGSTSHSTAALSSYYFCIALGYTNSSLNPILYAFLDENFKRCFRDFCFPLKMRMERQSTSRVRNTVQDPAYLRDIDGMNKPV

[11] = molecular target: Delta-type opioid receptor (Homo sapiens) (UniProt P41143); experiment: Inhibition of Opiate delta1 receptor (unknown origin) at 10 uM
[12] = molecular target: Muscarinic acetylcholine receptor M2 (Homo sapiens) (UniProt P08172); experiment: Inhibition of Muscarinic M2 receptor (unknown origin) at 10 uM
[13] = molecular target: Muscarinic acetylcholine receptor M1 (Homo sapiens) (UniProt P11229); experiment: Inhibition of Muscarinic M1 receptor (unknown origin) at 10 uM
Homo sapiens [14] = species on record: Homo sapiens; experiment: Inhibition of MT1 receptor (unknown origin) at 10 uM
Homo sapiens [15] = species on record: Homo sapiens; experiment: Inhibition of I2 imidazoline binding site (unknown origin) at 10 uM
[16] = molecular target: Histamine H1 receptor (Homo sapiens) (UniProt P35367); experiment: Inhibition of Histamine H1 receptor (unknown origin) at 10 uM
Chain of Histamine H1 receptor (Homo sapiens) (P35367 whole entry): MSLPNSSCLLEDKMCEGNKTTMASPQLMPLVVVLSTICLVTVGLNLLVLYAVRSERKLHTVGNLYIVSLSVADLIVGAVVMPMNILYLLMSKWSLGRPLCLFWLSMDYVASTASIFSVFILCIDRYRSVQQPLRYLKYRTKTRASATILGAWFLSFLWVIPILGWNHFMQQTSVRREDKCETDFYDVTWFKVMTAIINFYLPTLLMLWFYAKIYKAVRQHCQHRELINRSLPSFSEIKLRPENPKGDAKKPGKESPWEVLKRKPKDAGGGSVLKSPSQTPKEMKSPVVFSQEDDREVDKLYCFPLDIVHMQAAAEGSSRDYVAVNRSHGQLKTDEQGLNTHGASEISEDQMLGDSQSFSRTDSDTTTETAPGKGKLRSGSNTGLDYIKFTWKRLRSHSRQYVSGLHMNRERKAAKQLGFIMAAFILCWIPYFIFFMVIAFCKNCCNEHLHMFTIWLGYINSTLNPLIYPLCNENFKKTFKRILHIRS

[17] = molecular target: T1, Glutamate [NMDA] receptor (Homo sapiens) (UniProt Q05586+Q12879+Q13224+O15399+O60391+Q14957+Q8TCU5); experiment: Inhibition of NMDA receptor phencyclidine binding site (unknown origin) at 10 uM
[18] = molecular target: T1, Glutamate [NMDA] receptor (Homo sapiens); experiment: Inhibition of NMDA receptor agonist binding site (unknown origin) at 10 uM
[19] = molecular target: Estrogen receptor (Homo sapiens) (UniProt P03372); experiment: Inhibition of ERalpha (unknown origin) at 10 uM
[20] = molecular target: Epidermal growth factor receptor (Homo sapiens) (UniProt P00533); experiment: Inhibition of EGF receptor (unknown origin) at 10 uM
Chain of Epidermal growth factor receptor (Homo sapiens) (P00533 whole entry): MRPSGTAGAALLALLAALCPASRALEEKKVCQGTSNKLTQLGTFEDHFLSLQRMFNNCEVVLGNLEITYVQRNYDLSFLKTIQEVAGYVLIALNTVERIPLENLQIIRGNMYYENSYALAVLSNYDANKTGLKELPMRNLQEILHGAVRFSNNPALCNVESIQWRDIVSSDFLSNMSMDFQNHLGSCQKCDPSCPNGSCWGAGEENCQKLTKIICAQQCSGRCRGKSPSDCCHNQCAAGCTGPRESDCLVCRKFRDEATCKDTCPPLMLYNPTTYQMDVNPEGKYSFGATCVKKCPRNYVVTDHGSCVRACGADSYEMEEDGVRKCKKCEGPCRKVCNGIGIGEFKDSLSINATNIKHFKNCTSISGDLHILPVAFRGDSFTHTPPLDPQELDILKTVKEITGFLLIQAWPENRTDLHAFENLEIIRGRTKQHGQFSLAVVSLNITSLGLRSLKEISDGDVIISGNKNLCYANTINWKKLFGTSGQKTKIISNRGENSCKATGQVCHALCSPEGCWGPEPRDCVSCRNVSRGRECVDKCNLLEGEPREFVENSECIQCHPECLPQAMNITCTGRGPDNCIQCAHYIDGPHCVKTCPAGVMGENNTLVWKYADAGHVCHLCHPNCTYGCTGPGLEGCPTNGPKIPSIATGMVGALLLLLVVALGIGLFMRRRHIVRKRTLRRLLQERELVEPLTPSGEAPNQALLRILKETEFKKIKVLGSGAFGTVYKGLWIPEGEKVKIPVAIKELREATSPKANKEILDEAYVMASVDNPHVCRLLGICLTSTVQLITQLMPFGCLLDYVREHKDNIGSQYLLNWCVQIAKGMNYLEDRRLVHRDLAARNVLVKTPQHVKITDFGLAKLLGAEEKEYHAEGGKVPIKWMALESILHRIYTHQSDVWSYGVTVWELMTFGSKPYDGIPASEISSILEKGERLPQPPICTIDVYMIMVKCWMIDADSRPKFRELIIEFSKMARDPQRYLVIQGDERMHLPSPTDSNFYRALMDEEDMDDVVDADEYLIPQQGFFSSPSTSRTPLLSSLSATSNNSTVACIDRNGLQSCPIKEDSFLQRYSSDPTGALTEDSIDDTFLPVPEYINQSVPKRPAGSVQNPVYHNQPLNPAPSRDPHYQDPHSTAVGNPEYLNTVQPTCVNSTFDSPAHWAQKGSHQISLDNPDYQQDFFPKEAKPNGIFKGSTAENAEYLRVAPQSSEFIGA

[21] = molecular target: Endothelin-1 receptor (Homo sapiens) (UniProt P25101); experiment: Inhibition of ETA receptor (unknown origin) at 10 uM
Chain of Endothelin-1 receptor (Homo sapiens) (P25101 whole entry): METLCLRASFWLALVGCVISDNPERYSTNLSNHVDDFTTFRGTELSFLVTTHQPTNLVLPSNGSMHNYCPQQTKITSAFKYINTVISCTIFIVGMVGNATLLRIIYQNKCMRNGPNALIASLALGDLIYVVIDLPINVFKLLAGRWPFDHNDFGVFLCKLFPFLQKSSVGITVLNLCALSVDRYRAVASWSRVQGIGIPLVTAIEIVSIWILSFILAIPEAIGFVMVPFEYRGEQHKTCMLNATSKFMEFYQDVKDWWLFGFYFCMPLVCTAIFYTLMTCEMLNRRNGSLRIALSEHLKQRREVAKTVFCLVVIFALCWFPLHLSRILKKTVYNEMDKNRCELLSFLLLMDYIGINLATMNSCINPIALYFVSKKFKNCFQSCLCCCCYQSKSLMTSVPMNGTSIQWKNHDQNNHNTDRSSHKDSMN

Homo sapiens [22] = species on record: Homo sapiens; experiment: Inhibition of D4.2 receptor (unknown origin) at 10 uM
[23] = molecular target: Cannabinoid receptor 1 (Homo sapiens) (UniProt P21554); experiment: Inhibition of CB1 receptor (unknown origin) at 10 uM
Homo sapiens [24] = species on record: Homo sapiens; experiment: Inhibition of N-type calcium channel (unknown origin) at 10 uM
[25] = molecular target: B2 bradykinin receptor (Homo sapiens) (UniProt P30411); experiment: Inhibition of Bradykinin B2 receptor (unknown origin) at 10 uM
[26] = molecular target: Beta-2 adrenergic receptor (Homo sapiens) (UniProt P07550); experiment: Inhibition of Adrenergic beta2 receptor (unknown origin) at 10 uM
[27] = molecular target: Beta-1 adrenergic receptor (Homo sapiens) (UniProt P08588); experiment: Inhibition of Adrenergic beta1 receptor (unknown origin) at 10 uM
Chain of Beta-1 adrenergic receptor (Homo sapiens) (P08588 whole entry, looked up): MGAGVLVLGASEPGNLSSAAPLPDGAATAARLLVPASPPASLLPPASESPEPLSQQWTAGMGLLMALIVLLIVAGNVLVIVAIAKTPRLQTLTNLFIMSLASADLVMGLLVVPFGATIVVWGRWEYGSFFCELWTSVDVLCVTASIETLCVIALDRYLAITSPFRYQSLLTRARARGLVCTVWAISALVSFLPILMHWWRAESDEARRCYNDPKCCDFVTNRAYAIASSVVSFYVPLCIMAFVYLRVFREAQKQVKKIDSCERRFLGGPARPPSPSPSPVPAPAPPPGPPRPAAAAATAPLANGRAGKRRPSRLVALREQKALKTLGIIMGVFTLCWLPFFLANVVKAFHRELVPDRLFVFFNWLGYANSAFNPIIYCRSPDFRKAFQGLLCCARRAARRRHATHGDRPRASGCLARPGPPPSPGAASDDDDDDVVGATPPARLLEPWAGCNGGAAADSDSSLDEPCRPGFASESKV

[28] = molecular target: Alpha-1B adrenergic receptor (Homo sapiens) (UniProt P35368); experiment: Inhibition of Adrenergic alpha1B receptor (unknown origin) at 10 uM
[29] = molecular target: Alpha-1A adrenergic receptor (Homo sapiens) (UniProt P35348); experiment: Inhibition of Adrenergic alpha1A receptor (unknown origin) at 10 uM
[30] = molecular target: Adenosine receptor A3 (Homo sapiens) (UniProt P0DMS8); experiment: Inhibition of Adenosine A3 receptor (unknown origin) at 10 uM
Chain of Adenosine receptor A3 (Homo sapiens) (P0DMS8 whole entry): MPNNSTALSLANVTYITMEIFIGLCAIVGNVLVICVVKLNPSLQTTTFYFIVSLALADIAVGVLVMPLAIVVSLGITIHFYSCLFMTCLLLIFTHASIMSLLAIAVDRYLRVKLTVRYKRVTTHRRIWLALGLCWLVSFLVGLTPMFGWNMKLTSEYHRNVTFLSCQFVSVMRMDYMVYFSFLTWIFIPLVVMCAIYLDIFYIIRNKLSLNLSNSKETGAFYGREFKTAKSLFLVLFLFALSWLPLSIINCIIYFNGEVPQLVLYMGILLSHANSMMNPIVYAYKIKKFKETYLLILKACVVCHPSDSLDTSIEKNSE

[31] = molecular target: Adenosine receptor A2a (Homo sapiens) (UniProt P29274); experiment: Inhibition of Adenosine A2A receptor (unknown origin) at 10 uM
[32] = molecular target: Adenosine receptor A1 (Homo sapiens) (UniProt P30542); experiment: Inhibition of Adenosine A1 receptor (unknown origin) at 10 uM
Chain of Adenosine receptor A1 (Homo sapiens) (P30542 whole entry): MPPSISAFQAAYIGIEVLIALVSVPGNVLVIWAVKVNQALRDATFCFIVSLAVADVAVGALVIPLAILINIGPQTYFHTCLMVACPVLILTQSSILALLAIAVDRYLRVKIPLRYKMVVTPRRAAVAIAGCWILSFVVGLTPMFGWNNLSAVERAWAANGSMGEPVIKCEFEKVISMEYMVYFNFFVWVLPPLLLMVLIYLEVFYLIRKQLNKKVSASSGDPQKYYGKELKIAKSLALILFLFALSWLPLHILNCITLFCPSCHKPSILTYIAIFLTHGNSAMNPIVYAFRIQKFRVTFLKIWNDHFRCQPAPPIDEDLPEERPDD

Homo sapiens [33] = species on record: Homo sapiens; experiment: Inhibition of Purinergic P2Y receptor (unknown origin) at 10 uM
[34] = molecular target: 5-hydroxytryptamine receptor 3A (Homo sapiens) (UniProt P46098); experiment: Inhibition of 5HT3 receptor (unknown origin) at 10 uM
Homo sapiens [35] = species on record: Homo sapiens; experiment: Inhibition of Sodium channel site 2 (unknown origin) at 10 uM
[36] = molecular target: Substance-P receptor (Homo sapiens) (UniProt P25103); experiment: Inhibition of Tachykinin NK1 receptor (unknown origin) at 10 uM
[37] = molecular target: Sodium-dependent dopamine transporter (Homo sapiens) (UniProt Q01959); experiment: Inhibition of DAT (unknown origin) at 10 uM
[38] = molecular target: Sodium- and chloride-dependent GABA transporter 1 (Homo sapiens) (UniProt P30531); experiment: Inhibition of GABA transporter (unknown origin) at 10 uM
[39] = molecular target: Sodium-dependent noradrenaline transporter (Homo sapiens) (UniProt P23975); experiment: Inhibition of Norepinephrine transporter (unknown origin) at 10 uM
[40] = molecular target: T2, Indoleamine 2,3-dioxygenase 1 (Homo sapiens, UniProt P14902); experiment: Inhibition of human Indoleamine 2,3-dioxygenase using L-tryptophan as substrate by emission fluorescence analysis
T2 sequence (P14902 whole entry): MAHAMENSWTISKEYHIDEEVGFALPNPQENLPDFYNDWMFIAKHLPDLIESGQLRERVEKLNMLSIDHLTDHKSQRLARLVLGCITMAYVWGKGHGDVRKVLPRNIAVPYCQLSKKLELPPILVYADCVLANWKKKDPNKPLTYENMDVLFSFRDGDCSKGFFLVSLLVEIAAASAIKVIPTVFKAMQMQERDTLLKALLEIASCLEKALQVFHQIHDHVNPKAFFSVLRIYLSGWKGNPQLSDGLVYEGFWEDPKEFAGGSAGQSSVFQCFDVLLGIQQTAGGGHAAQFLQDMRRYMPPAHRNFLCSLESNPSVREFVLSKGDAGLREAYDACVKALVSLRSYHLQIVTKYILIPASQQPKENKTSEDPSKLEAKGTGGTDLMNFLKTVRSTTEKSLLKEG

Homo sapiens [41] = species on record: Homo sapiens; experiment: Inhibition of potassium channel (unknown origin) at 10 uM
[42] = molecular target: 5-hydroxytryptamine receptor 1A (Homo sapiens) (UniProt P08908); experiment: Inhibition of 5HT-1A (unknown origin) at 10 uM
[43] = Half life in Sprague-Dawley rat plasma at 10 mg/kg, po by LC-MS/MS analysis; format: ADME, organism-based
[44] = Tmax in Sprague-Dawley rat plasma at 10 mg/kg, po by LC-MS/MS analysis; format: ADME, organism-based
[45] = Oral bioavailability in Sprague-Dawley rat plasma at 10 mg/kg by LC-MS/MS analysis; format: ADME, organism-based
[46] = molecular target: T2, Indoleamine 2,3-dioxygenase 1; experiment: Inhibition of Indoleamine 2,3-dioxygenase in human HeLa cells in presence of L-tryptophan as substrate after 24 hrs in presence of L-tryptophan; format: cell-based

With `O=C1Cc2cc(S(=O)(=O)NNc3ccc(Br)cc3)ccc2N1` the inhibition in vivo at 50 mg/kg (Mus musculus [1]) was 42%, the concentration at 2 h [2] was 4 µM and the concentration at 5 h [3] was 2.2 µM. The Time (CT26 [4]) was 7.4 days, the Time (CT26 [5]) was 6.4 days and the Activity (Mus musculus [6]) was “Non-toxic”. For the same compound, the inhibition in vivo at 100 mg/kg (CT26 [7]) was 64%, the inhibition [8] was less than 50% and the inhibition [9] was less than 50%. For the same compound, the inhibition [10] was less than 50%, the inhibition [11] was less than 50% and the inhibition [12] was less than 50%. For the same compound, the inhibition [13] was less than 50%, the inhibition (Homo sapiens [14]) was less than 50% and the inhibition (Homo sapiens [15]) was less than 50%. The inhibition [16] was less than 50%, the inhibition [17] was less than 50% and the inhibition [18] was less than 50%. It also gave an inhibition [19] of less than 50%, an inhibition [20] of less than 50% and an inhibition [21] of less than 50%. It also gave an inhibition (Homo sapiens [22]) of less than 50%, an inhibition [23] of less than 50% and an inhibition (Homo sapiens [24]) of less than 50%. It also gave an inhibition [25] of less than 50%, an inhibition [26] of less than 50% and an inhibition [27] of less than 50%. For the same compound, the inhibition [28] was less than 50%, the inhibition [29] was less than 50% and the inhibition [30] was less than 50%. The inhibition [31] was less than 50%, the inhibition [32] was less than 50% and the inhibition (Homo sapiens [33]) was less than 50%. The inhibition [34] was less than 50%, the inhibition (Homo sapiens [35]) was less than 50% and the inhibition [36] was less than 50%. The inhibition [37] was less than 50%, the inhibition [38] was less than 50% and the inhibition [39] was 62%. It also gave an IC50 [40] of 35.8 nM, an inhibition (Homo sapiens [41]) of less than 50% and an inhibition [42] of less than 50%. For the same compound, the half-life [43] was 2.3 h, the Tmax [44] was 0.8 h and the bioavailability [45] was 59%. It also gave an EC50 [46] of 67.6 nM.

— ChEMBL document CHEMBL3763120, “Phenyl Benzenesulfonylhydrazides Exhibit Selective Indoleamine 2,3-Dioxygenase Inhibition with Potent in Vivo Pharmacodynamic Activity and Antitumor Efficacy” (J Med Chem, 2016)
